Results taken from publication PMC12993615 (The journal of pain, 2024).

Tests used:
Type in all cases: in vivo, male Sprague Dawley rats
[1] = test system: oxaliplatin-induced mechanical allodynia; assay: 7-day treatment of established OIPN, paw withdrawal threshold; conditions: pregabalin 30 mg/kg PO on Days 7 and 14, P < .01
Protocol: (§1) Male Sprague Dawley rats (150–210 g) were housed in groups of 4 in intra-ventilated Perspex home cages. Humidity, temperature (21 ± 1 °C), and lighting (light-dark cycle of 12:12 hours) were controlled and maintained in the home cages, with food and water available ad libitum. Rats acclimatised to the home cages for at least 1 week. All experiments were carried out according to the Animals (Scientific Procedures) Act, 1986 (U.K. Government Home Office). The study was performed under the Home Office project licence number PP0847012. OIPN was established with a single dose of OXA (10 mg/kg, IP).
Body weight was monitored throughout the study, and terminal plasma and whole brain samples were taken for bioanalysis.
(§2) Tactile allodynia (primary outcome measure) was assessed using paw withdrawal threshold (PWT), a measure of pain sensitivity. PWT was evaluated using calibrated von-Frey monofilaments (Touch-Test Sensory Evaluator; Scientific Marketing Associates) applied to the plantar surface of the left hind paw. PWT was determined by increasing and decreasing stimulus intensity and estimated using Dixon’s up-down method.[38],[39]
(§3) To acquire baseline readings, pain behaviour was assessed on 3 consecutive days (Days −3, −2, −1). […] NPB expressed as a percentage change from HBL was calculated as follows (HBL-NPB)/HBL*100. […]

[2] = test system: oxaliplatin-induced mechanical allodynia; assay: Prevention of OIPN, paw withdrawal threshold; conditions: pregabalin 30 mg/kg PO QD
Protocol: as §1
(§4) Pain measurements were made on Days 5/6 (when neuropathy has normally developed) and at the end of the study. […] Terminal plasma samples were taken for bioanalysis and proteomics (Somalogic). Brain regions involved in pain processing, that is, prefrontal cortex (PFC), periaqueductal grey (PAG), whole spinal cords (SC), and L4-L6 dorsal root ganglia, were collected for lipidomic and genomic (Genewiz, China) analyses.
as §2
To acquire baseline readings, pain behaviour was assessed on 3 consecutive days (Days −3, −2, −1). The mean of Day −2 and Day −1 was considered the healthy baseline (HBL) prior to OIPN induction. On Days 5 and 6 after OXA injection, thresholds were reassessed. The mean of Days 5 and 6 was considered the neuropathic baseline (NPB). Animals were then ranked and randomised (based on a Latin square design) to treatment groups according to the percentage change of the mean thresholds observed in the NPB compared to the HBL. NPB expressed as a percentage change from HBL was calculated as follows (HBL-NPB)/HBL*100. All behavioural assessment was done by an experimenter blinded to the identity of the treatment. Separate people were responsible for dosing and assessment/data analysis.

[3] = test system: oxaliplatin-induced thermal hyperalgesia; assay: Prevention of OIPN, cold plate latency; conditions: pregabalin 30 mg/kg PO QD, P < .001
Protocol: as §1
Pain measurements were made on Days 5/6 (when neuropathy has normally developed) and at the end of the study. […] Terminal plasma samples were taken for bioanalysis and proteomics (Somalogic). […]
Thermal hyperalgesia was assessed using a cold plate (Bioseb, France) set at a fixed temperature of 15 °C. Latency to the first escape behaviour from the plate was measured indicating discomfort to the thermal stimulation. […]
as §3

[4] = Prevention of OIPN, body weight; conditions: pregabalin 30 mg/kg PO QD
Source text: as §4

With `CC(C)C[C@H](CN)CC(=O)O` [pregabalin, Pregabalin, reference compound] the “PWT scores versus vehicle” value [1] was “significantly higher PWT scores than vehicle”, the “PWT on Day 14 compared to HBL” value [2] was “neither the ART26.12 nor the pregabalin groups showed significant allodynia” and the “PWT on Day 5/6 compared to HBL” value ([2]; P < .05) was “significantly lower PWTs”. The “cold plate latencies on Day 14 versus vehicle” value [3] was “significantly higher cold plate latencies than the vehicle group” and the “body weight in first 4 days post-administration of OXA” value [4] was “weight loss”.
